From ChEMBL document CHEMBL5108055, “Dual A1/A3 Adenosine Receptor Antagonists: Binding Kinetics and Structure-Activity Relationship Studies Using Mutagenesis and Alchemical Binding Free Energy Calculations” (J Med Chem, 2022)

Columns and labels:
Adenosine receptor A3 [1] = target: T1, Adenosine receptor A3 (Homo sapiens, UniProt P0DMS8); test: Antagonist activity at wild type A3R (unknown origin) expressed in Flp-In-CHO cells assessed as inhibition of NECA reduced forskolin stimulated cAMP accumulation incubated for 30 mins; assay type: functional, cell-based
T1 sequence (P0DMS8 whole entry): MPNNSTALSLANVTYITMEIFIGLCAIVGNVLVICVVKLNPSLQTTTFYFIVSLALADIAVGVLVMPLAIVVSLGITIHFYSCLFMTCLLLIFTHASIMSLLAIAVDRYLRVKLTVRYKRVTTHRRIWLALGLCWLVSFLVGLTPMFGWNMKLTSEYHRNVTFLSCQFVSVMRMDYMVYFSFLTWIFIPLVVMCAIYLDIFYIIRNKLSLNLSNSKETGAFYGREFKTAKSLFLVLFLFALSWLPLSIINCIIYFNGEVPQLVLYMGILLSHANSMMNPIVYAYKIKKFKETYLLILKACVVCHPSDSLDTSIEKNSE

Adenosine receptor A3 [2] = target: T1, Adenosine receptor A3; test: Binding affinity to wild type A3R (unknown origin) expressed in CHO-K1 cells assessed as equilibrium binding affinity constant by nanoBRET assay; assay type: cell-based, Flp-In-CHO
Adenosine receptor A3 [3] = target: T1, Adenosine receptor A3; test: Binding affinity to Nluc-A3R (unknown origin) expressed in HEK293 cells by nanoBRET assay; assay type: cell-based
Adenosine receptor A3 [4] = target: T1, Adenosine receptor A3; test: Binding affinity to wild type A3R (unknown origin) expressed in Flp-In-CHO cells assessed as dissociation constant by Schild analysis; assay type: cell-based
Adenosine receptor A1 [5] = target: T2, Adenosine receptor A1 (Homo sapiens, UniProt P30542); test: Binding affinity to wild type A1R (unknown origin) expressed in CHO-K1 cells assessed as equilibrium binding affinity constant by nanoBRET assay; assay type: cell-based
T2 sequence (P30542 whole entry): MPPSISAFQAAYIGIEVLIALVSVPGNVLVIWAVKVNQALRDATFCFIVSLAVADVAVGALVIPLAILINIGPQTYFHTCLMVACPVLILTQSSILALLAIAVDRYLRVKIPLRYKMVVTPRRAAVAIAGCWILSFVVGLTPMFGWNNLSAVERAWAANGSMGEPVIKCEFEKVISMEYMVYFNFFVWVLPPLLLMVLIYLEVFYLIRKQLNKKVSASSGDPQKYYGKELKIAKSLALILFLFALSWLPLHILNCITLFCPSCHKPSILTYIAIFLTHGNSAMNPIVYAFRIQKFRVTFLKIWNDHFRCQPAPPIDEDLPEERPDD

Adenosine receptor A1 [6] = target: T2, Adenosine receptor A1; test: Antagonist activity at wild type A1R (unknown origin) expressed in CHO-K1 cells assessed as inhibition of NECA reduced forskolin stimulated cAMP accumulation incubated for 30 mins; assay type: functional, cell-based
Adenosine receptor A1 [7] = target: T2, Adenosine receptor A1; test: Binding affinity to Nluc-A1R (unknown origin) expressed in HEK293 cells by nanoBRET assay; assay type: cell-based
[8] = Binding affinity to A1R Y271 7.36A mutant (unknown origin) by saturation NanoBRET binding assay; parameters: species or system Homo sapiens
Adenosine receptor A1 [9] = target: Adenosine receptor A1 (Homo sapiens, UniProt P30542, H251A); test: Binding affinity to A1R H251 6.52A mutant (unknown origin) by saturation NanoBRET binding assay
Adenosine receptor A1 [10] = target: Adenosine receptor A1 (Homo sapiens, UniProt P30542, S267A); test: Binding affinity to A1R S267 7.32A mutant (unknown origin) in by saturation NanoBRET binding assay
Adenosine receptor A1 [11] = target: Adenosine receptor A1 (Homo sapiens, UniProt P30542, E172A); test: Binding affinity to A1R E172 5.30A mutant (unknown origin) by saturation NanoBRET binding assay
Adenosine receptor A1 [12] = target: Adenosine receptor A1 (Homo sapiens, UniProt P30542, L250A)
Description: Binding affinity to A1R L250 6.51A mutant (unknown origin) by saturation NanoBRET binding assay

Adenosine receptor A1 [13] = target: T2, Adenosine receptor A1; test: Binding affinity to human adenosine A1R expressed in CHO cells membrane; assay type: cell membranes
Adenosine receptor A3 [14] = target: T1, Adenosine receptor A3; test: Binding affinity to N-terminal Nano-luc tagged human adenosine A3R expressed in HEK293 cells membrane; assay type: cell membranes
[15] = target: T3, Adenosine receptor A3 (Homo sapiens) (UniProt P0DMS8); test: Binding affinity to N-terminal Nano-luc tagged human adenosine A3R expressed in HEK293 cells membrane assessed as dissociation constant (koff); assay type: cell membranes; settings: filed as antagonist
T3 sequence (whole entry): T1 sequence (P0DMS8 whole entry)

[16] = target: T3, Adenosine receptor A3 (Homo sapiens); test: Binding affinity to N-terminal Nano-luc tagged human adenosine A3R expressed in HEK293 cells membrane assessed as association constant (kon); assay type: cell membranes; settings: filed as antagonist
[17] = target: T3, Adenosine receptor A3 (Homo sapiens); test: Binding affinity to N-terminal Nano-luc tagged human adenosine A3R expressed in HEK293 cells membrane assessed as residence time; assay type: cell membranes; settings: filed as antagonist
[18] = target: T4, Adenosine receptor A1 (Homo sapiens) (UniProt P30542); test: Displacement of [3H]-DPCPX from human adenosine A1R expressed in CHO cells membrane assessed as dissociation constant (koff) preincubated for 1 hr followed by compound addition and measured after 1 hr; assay type: cell membranes; settings: filed as antagonist
T4 sequence (whole entry): T2 sequence (P30542 whole entry)

[19] = target: T4, Adenosine receptor A1 (Homo sapiens); test: Displacement of [3H]-DPCPX from human adenosine A1R expressed in CHO cells membrane assessed as association constant (kon) incubated for 45 mins; assay type: cell membranes; settings: filed as antagonist
Adenosine receptor A1 [20] = target: T2, Adenosine receptor A1; test: Displacement of [3H]-DPCPX from human adenosine A1R expressed in CHO cells membrane incubated for 1 hr; assay type: cell membranes
[21] = target: T4, Adenosine receptor A1 (Homo sapiens); test: Displacement of [3H]-DPCPX from human adenosine A1R expressed in CHO cells membrane assessed as residence time; assay type: cell membranes; settings: filed as antagonist
Adenosine receptor A1 [22] = target: T2, Adenosine receptor A1; test: Binding affinity to wild type A1R (unknown origin) by saturation NanoBRET binding assay
[23] = target: T3, Adenosine receptor A3 (Homo sapiens); test: Binding affinity to human adenosine A3R expressed in CHO cells membrane assessed as binding constant (kon); assay type: cell membranes; settings: filed as antagonist
Adenosine receptor A3 [24] = target: T1, Adenosine receptor A3; test: Binding affinity to human adenosine A3R expressed in CHO cells membrane; assay type: cell membranes
[25] = target: T3, Adenosine receptor A3 (Homo sapiens); test: Binding affinity to human adenosine A3R expressed in CHO cells membrane assessed as dissociation constant (koff); assay type: cell membranes; settings: filed as antagonist
[26] = target: T3, Adenosine receptor A3 (Homo sapiens); test: Binding affinity to human adenosine A3R expressed in CHO cells membrane assessed as residence time; assay type: cell membranes; settings: filed as antagonist

Chain of Adenosine receptor A1 (Homo sapiens, UniProt P30542, E172A) (P30542 whole entry E172A): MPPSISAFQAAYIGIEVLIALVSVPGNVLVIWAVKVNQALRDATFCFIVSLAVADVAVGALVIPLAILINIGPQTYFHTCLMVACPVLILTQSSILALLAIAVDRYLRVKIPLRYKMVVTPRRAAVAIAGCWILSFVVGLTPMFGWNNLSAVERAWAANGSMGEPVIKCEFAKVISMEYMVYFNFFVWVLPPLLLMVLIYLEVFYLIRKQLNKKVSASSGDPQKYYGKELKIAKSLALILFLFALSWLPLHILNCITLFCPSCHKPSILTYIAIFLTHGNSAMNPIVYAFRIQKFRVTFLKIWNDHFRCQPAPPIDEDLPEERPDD
Chain of Adenosine receptor A1 (Homo sapiens, UniProt P30542, L250A) (P30542 whole entry L250A): as the sequence (P30542 whole entry E172A) above, with A172E, L250A counted along it
Chain of Adenosine receptor A1 (Homo sapiens, UniProt P30542, S267A) (P30542 whole entry S267A): as the sequence (P30542 whole entry E172A) above, with A172E, S267A counted along it
Chain of Adenosine receptor A1 (Homo sapiens, UniProt P30542, H251A) (P30542 whole entry H251A): as the sequence (P30542 whole entry E172A) above, with A172E, H251A counted along it

IC50 (Adenosine receptor A3 [1]) [nM] | Ki (Adenosine receptor A3 [2]) [nM] | Kd (Adenosine receptor A3 [3]) [nM] | Kd (Adenosine receptor A3 [4]) [nM] | Ki (Adenosine receptor A1 [5]) [nM] | IC50 (Adenosine receptor A1 [6]) [nM] | Kd (Adenosine receptor A1 [7]) [nM] | Compound | also measured
4.27 | 64.6 |  | 302 | 1000 | 1.41 |  | Cn1nc(NC(=O)Nc2ccccc2)c2ccnc(NC3CCCCC3)c21 | 
3.8 | 603 |  | 355 |  |  |  | COc1cc(Nc2nc(C#N)cc3c(C(C)C)n[nH]c23)cc(OC)c1OC | 
2.82 | 631 |  | 550 | 288 | 5.01 | 282 | COc1cc(Nc2nc(Cl)cc3c(C(C)C)n[nH]c23)cc(OC)c1OC | 

More lines, now with the values behind:

Compound | IC50 (Adenosine receptor A3 [1]) [nM] | Ki (Adenosine receptor A3 [2]) [nM] | Kd (Adenosine receptor A3 [3]) [nM] | Kd (Adenosine receptor A3 [4]) [nM] | Ki (Adenosine receptor A1 [5]) [nM] | IC50 (Adenosine receptor A1 [6]) [nM] | Kd (Adenosine receptor A1 [7]) [nM] | also measured
COc1cc(Nc2nc(Cl)cc3c(-c4ccccc4)n[nH]c23)cc(OC)c1OC | 12.3 | 55 | 85.1 | 89.1 |  |  |  | 
COc1cc(Nc2nccc3c(-c4ccccc4)n[nH]c23)cc(OC)c1OC | 5.13 | 100 | 74.1 | 251 |  |  |  | 
O=C(CNc1ccccc1)Nc1n[nH]c2cnc(Nc3ccccc3)cc12 | 3.02 | 0.115 | 355 | 490 | 363 | 6.92 | 282 | 
COc1cc(Nc2nc(C#N)cc3cn[nH]c23)cc(OC)c1OC |  |  |  |  | 229 | 10.2 | 102 | 
COc1cc(Nc2nc(CNCc3ccccc3)cc3c(-c4ccccc4)n[nH]c23)cc(OC)c1OC | 7.24 | 85.1 | 186 | 158 | 204 | 3.89 | 427 | 
COc1cc(Nc2nc(CN)cc3c(-c4ccccc4)n[nH]c23)cc(OC)c1OC | 4.9 | 132 | 257 | 257 | 22.9 | 22.9 | 40.7 | 
CCCn1c(=O)c2[nH]c(-c3ccc(OCC(=O)NCCNC(=O)CCNC(=O)CCCCNC(=O)CCCCCNC(=O)COc4ccc(/C=C/C5=[N+]6C(=Cc7ccc(-c8cccs8)n7[B-]6(F)F)C=C5)cc4)cc3)nc2n(CCC)c1=O |  |  |  |  |  |  |  | Kd [8]: 71.1 nM; Kd (Adenosine receptor A1 [9]; read-out: Kd): 145 nM; Kd (Adenosine receptor A1 [10]; read-out: Kd): 71 nM; Kd (Adenosine receptor A1 [11]; read-out: Kd): 116 nM; Kd (Adenosine receptor A1 [12]): 158 nM
N#Cc1cc2c(-c3ccccc3)n[nH]c2c(Nc2ccccc2)n1 | 60.3 | 43.7 | 26.3 | 17 | 214 | 13.5 | 61.7 | 
CCCn1c(=O)[nH]c(=O)c2[nH]c(C3CCCC3)nc21 |  |  |  |  |  |  |  | Kd (Adenosine receptor A1 [13]): 1.5 nM
COc1cccc(Cn2c(=O)n(CC3CC3)c(=O)c3c2nc2cc(OC)ccn23)c1 |  |  |  |  |  |  |  | Kd (Adenosine receptor A3 [14]): 9.11 nM; K [15]: 0.0065 min⁻¹; K [16]: 8.17 10^6/M/min; TIME [17]: 2.8 h
Cn1nc(NC(=O)c2ccccc2)c2cc(Nc3ccccc3)ncc21 | 6.76 | 234 |  | 170 | > 955 | 5.01 | 851 | 
N#Cc1c(N)nc(SCc2ncc[nH]2)c(C#N)c1-c1ccc(O)cc1 |  |  |  |  |  |  |  | K [18]: 0.92 min⁻¹; K [19]: 2 10^8/M/min; Kd (Adenosine receptor A1 [20]): 4.6 nM; TIME [21]: 0.0183 h
CCNC(=O)[C@H]1O[C@@H](n2cnc3c(N)ncnc32)[C@H](O)[C@@H]1O [NECA] |  |  |  |  |  |  |  | pKd [8]: 5.45
COc1cc(Nc2nc(C#N)cc3c(-c4ccccc4)n[nH]c23)cc(OC)c1OC |  |  |  |  | 4.37 | 200 | 1.74 | Kd (Adenosine receptor A1 [9]; read-out: pKd (converted)): 9.33 nM; Kd (Adenosine receptor A1 [10]; read-out: pKd (converted)): 7.94 nM; Kd (Adenosine receptor A1 [22]): 13.5 nM; Kd (Adenosine receptor A1 [11]; read-out: pKd (converted)): 23.4 nM; Kd (Adenosine receptor A1 [12]): 3.63 nM
CC[C@@H]1CN2C(=O)N(C)C3N=C(c4ccccc4)NC3C2=N1 (some centres undefined) |  |  |  |  |  |  |  | K [23]: 2.35 10^8/M/min; Kd (Adenosine receptor A3 [24]): 0.46 nM; K [25]: 0.208 min⁻¹; TIME [26]: 0.08 h
Cn1nc(NC(=O)CNc2ccccc2)c2cc(Nc3ccccc3)ncc21 |  |  |  |  | 295 | 2.63 | 398 | 
